# Test system: HT-29 cells
# Assay: HT-29 necroptosis cell viability assay (TNF-α/SMAC mimetic/zVAD-FMK, CellTiter-Glo)
# Assay type: cell-based
# Conditions: Homo sapiens, HT-29, HT-29 necroptosis cell viability assay; class symbols for IC50; read-out: Activity
# Summary of the method: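 HT-29 cells (~5,000/well, overnight) in FBS-free McCoy's 5A with TNF-α 10 ng/ml, SMAC mimetic 6 μM and zVAD-FMK 10 μM plus 10-point 1:3 compound titration, 20 h at 37°C. ATP measured by CellTiter-Glo luminescence; IC50 as geometric mean of duplicates.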
row,Compound,IC50 [µM]
1,"CN(CC1CCCO1)c1nccc(Oc2ccc(-n3ncn(Cc4c(F)cccc4F)c3=O)cc2)c1F (stereo not drawn) [Example 487, 4-(2,6-difluorobenzyl)-2-(4-((3-fluoro-2-(methyl((tetrahydrofuran-2-yl)methyl)amino)pyridin-4-yl)oxy)phenyl)-2,4-dihydro-3H-1,2,4-triazol-3-one]",0.1 to 1
2,"CCOC1(C)CN(c2nccc(Oc3ccc(-n4ncn(Cc5c(F)cccc5Cl)c4=O)cc3)c2F)C1 [Example 488, 4-(2-chloro-6-fluorobenzyl)-2-(4-((2-(3-ethoxy-3-methylazetidin-1-yl)-3-fluoropyridin-4-yl)oxy)phenyl)-2,4-dihydro-3H-1,2,4-triazol-3-one]",< 0.1
3,"CCOC1(C)CN(c2cc(Oc3ccc(-n4ncn(Cc5c(F)cccc5Cl)c4=O)cc3)ccn2)C1 [Example 489, 4-(2-chloro-6-fluorobenzyl)-2-(4-((2-(3-ethoxy-3-methylazetidin-1-yl)pyridin-4-yl)oxy)phenyl)-2,4-dihydro-3H-1,2,4-triazol-3-one]",0.1 to 1
4,"CCOC1(C)CN(c2nccc(Oc3ccc(-n4ncn(Cc5c(F)cccc5F)c4=O)cc3)c2F)C1 [Example 490, 4-(2,6-difluorobenzyl)-2-(4-((2-(3-ethoxy-3-methylazetidin-1-yl)-3-fluoropyridin-4-yl)oxy)phenyl)-2,4-dihydro-3H-1,2,4-triazol-3-one]",< 0.1
5,"COC1(C)CN(c2nccc(Oc3ccc(-n4ncn(Cc5c(F)cccc5Cl)c4=O)cc3)c2F)C1 [Example 491, 4-(2-chloro-6-fluorobenzyl)-2-(4-((3-fluoro-2-(3-methoxy-3-methylazetidin-1-yl)pyridin-4-yl)oxy)phenyl)-2,4-dihydro-3H-1,2,4-triazol-3-one]",< 0.1
6,"CCOC1CN(c2cc(S(=O)(=O)c3ccc(-n4ncn(Cc5c(F)cccc5F)c4=O)cc3)ccn2)C1 [Example 492, 4-(2,6-difluorobenzyl)-2-(4-((2-(3-ethoxyazetidin-1-yl)pyridin-4-yl)sulfonyl)phenyl)-2,4-dihydro-3H-1,2,4-triazol-3-one]",< 0.1
7,"CC1(O)CN(c2cc(S(=O)(=O)c3ccc(-n4ncn(Cc5c(F)cccc5F)c4=O)cc3)ccn2)C1 [Example 493, 4-(2,6-difluorobenzyl)-2-(4-((2-(3-hydroxy-3-methylazetidin-1-yl)pyridin-4-yl)sulfonyl)phenyl)-2,4-dihydro-3H-1,2,4-triazol-3-one]",< 0.1
8,"CCOC1CN(c2nccc(Oc3ccc(-n4ncn(Cc5c(F)cccc5F)c4=O)cc3Cl)c2F)C1 [Example 494, 2-(3-chloro-4-((2-(3-ethoxyazetidin-1-yl)-3-fluoropyridin-4-yl)oxy)phenyl)-4-(2,6-difluorobenzyl)-2,4-dihydro-3H-1,2,4-triazol-3-one]",< 0.1
9,"CCOC1CN(c2cc(Oc3ccc(-n4ncn(Cc5c(F)cccc5F)c4=O)cc3Cl)c(F)cn2)C1 [Example 495, 2-(3-chloro-4-((2-(3-ethoxyazetidin-1-yl)-5-fluoropyridin-4-yl)oxy)phenyl)-4-(2,6-difluorobenzyl)-2,4-dihydro-3H-1,2,4-triazol-3-one]",< 0.1
10,"COC1(C)CN(c2cc(Oc3ccc(-n4ncn(Cc5c(F)cccc5F)c4=O)cc3Cl)c(F)cn2)C1 [Example 496, 2-(3-chloro-4-((5-fluoro-2-(3-methoxy-3-methylazetidin-1-yl)pyridin-4-yl)oxy)phenyl)-4-(2,6-difluorobenzyl)-2,4-dihydro-3H-1,2,4-triazol-3-one]",< 0.1
11,"COC1(C)CN(c2nccc(Oc3ccc(-n4ncn(Cc5c(F)cccc5F)c4=O)cc3Cl)c2F)C1 [Example 497, 2-(3-chloro-4-((3-fluoro-2-(3-methoxy-3-methylazetidin-1-yl)pyridin-4-yl)oxy)phenyl)-4-(2,6-difluorobenzyl)-2,4-dihydro-3H-1,2,4-triazol-3-one]",< 0.1
12,"O=c1n(Cc2c(F)cccc2F)cnn1-c1ccc(Oc2ccnc(N3CCC34CCC4)c2)cc1 [Example 498, 2-(4-((2-(1-azaspiro[3.3]heptan-1-yl)pyridin-4-yl)oxy)phenyl)-4-(2,6-difluorobenzyl)-2,4-dihydro-3H-1,2,4-triazol-3-one]",0.1 to 1

# Source: US20250179061A1 (SIRONAX LTD., priority 2022, published 2025)
